# Source: patent US5055470A, “Method of treatment of ischemia in brain” (Bristol-Myers Squibb Co., priority 1989, dated 1991)
# Tests used:
# hypoxia-induced death = test: Protection against hypoxia-induced death (1-minute exposure to 100% nitrogen atmosphere); format: in vivo; settings: rats
# Method: Groups of rats received either water or drug solution in various doses given i.p. at specified times prior to a 1-minute exposure to a 100% nitrogen atmosphere. This 1-minute nitrogen exposure is lethal within 10 minutes to all animals receiving only vehicle. A 25 mg/kg treatment given 15 minutes before nitrogen exposure protected 3 of 8 animals while giving 50 mg/kg protected all animals.
# [1] = test system: NMDA-evoked release of acetylcholine, rat striatal brain tissue slices; test: Antagonism of NMDA-evoked release of tritiated acetylcholine from striatal slices; format: cell-based; settings: rat striatal slices preloaded with tritiated choline; 0.5 mM NMDA; 50 μM compound
# Method: Slices of rat striatal brain tissue were preloaded with tritiated choline and the release of tritiated acetylcholine evoked by NMDA in the presence or absence of BMY 14802 hydrochloride is measured.
smiles,measurement,setting,value
"OC(CCCN1CCN(c2ncc(F)cn2)CC1)c1ccc(F)cc1 (stereo not shown) [BMY 14802, 4-[4-(5-fluoro-2-pyrimidinyl)-1-piperazinyl]-1-(4-fluorophenyl)butanol]",animals protected from hypoxia-induced death,hypoxia-induced death; 25 mg/kg i.p. 15 minutes before nitrogen exposure,3 of 8
same,animals protected from hypoxia-induced death,hypoxia-induced death; 25 mg/kg i.p. 30 minutes before nitrogen exposure,4 of 8
same,animals protected from hypoxia-induced death,hypoxia-induced death; 25 mg/kg i.p. 60 minutes before nitrogen exposure,no protection
same,animals protected from hypoxia-induced death,hypoxia-induced death; 50 mg/kg i.p. 15 minutes before nitrogen exposure,all animals
same,animals protected from hypoxia-induced death,hypoxia-induced death; 50 mg/kg i.p. 30 minutes before nitrogen exposure,3 of 8
same,animals protected from hypoxia-induced death,hypoxia-induced death; 50 mg/kg i.p. 60 minutes before nitrogen exposure,2 of 8
same,attenuation of acetylcholine release evoked by NMDA,[1],significant attenuation
